{"source": "patent US20110300566A1", "about": "“METHODS FOR SCREENING FOR HISTONE DEACETYLASE ACTIVITY AND FOR IDENTIFYING HISTONE DEACETYLASE INHIBITORS” (priority 2002, published 2011)", "key": {"Hos3 [1]": {"target": "T1, Hos3 (Saccharomyces cerevisiae, UniProt Q02959)", "T1 construct": "made in house; host or cells: E. coli BL21(DE3)", "T1 sequence (Q02959 1-697)": "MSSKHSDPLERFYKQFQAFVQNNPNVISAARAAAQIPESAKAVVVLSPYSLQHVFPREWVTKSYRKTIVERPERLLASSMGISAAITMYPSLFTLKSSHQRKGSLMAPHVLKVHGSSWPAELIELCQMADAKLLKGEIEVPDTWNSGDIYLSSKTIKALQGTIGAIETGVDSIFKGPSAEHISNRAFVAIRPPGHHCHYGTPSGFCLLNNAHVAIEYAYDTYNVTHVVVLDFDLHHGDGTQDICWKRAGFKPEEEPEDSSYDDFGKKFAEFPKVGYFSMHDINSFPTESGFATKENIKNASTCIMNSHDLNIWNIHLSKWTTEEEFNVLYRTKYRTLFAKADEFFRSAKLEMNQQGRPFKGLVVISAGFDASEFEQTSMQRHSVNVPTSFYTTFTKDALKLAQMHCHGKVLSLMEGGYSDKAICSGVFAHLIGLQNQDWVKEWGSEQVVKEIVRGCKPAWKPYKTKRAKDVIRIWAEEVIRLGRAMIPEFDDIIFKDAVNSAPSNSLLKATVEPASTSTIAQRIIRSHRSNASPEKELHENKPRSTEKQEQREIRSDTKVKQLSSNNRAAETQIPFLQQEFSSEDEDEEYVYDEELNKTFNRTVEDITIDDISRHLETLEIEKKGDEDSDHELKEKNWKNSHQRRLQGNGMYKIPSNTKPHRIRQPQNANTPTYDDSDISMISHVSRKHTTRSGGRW", "test": "HDAC inhibitor studies (competition with 7AC substrate, fluorescent assay)", "assay_type": "biochemical", "settings": "for IC50: Hos3 (150 nM) with 7AC (75 mM) substrate; for Mode of Inhibition: Hos3, 7AC substrate, double-reciprocal plots, IC50 vs substrate concentration for TSA", "description": "Characterization of the Mechanism of Inhibition. Inhibitor studies were conducted using the 7AC substrate and the fluorescent histone deacetylase activity assay.\nCompetition experiments were performed in HDAC assay buffer (20 mM Tris, pH 8.0, 500 mM NaCl, 1 mM MnCl2) to a final reaction volume of 1 ml. Trichostatin A was solubilized in 100% DMSO, yielding a final concentration of 2% DMSO in this reaction. […] The final DMSO concentration in these reactions was 1%. 7AC substrate and inhibitor were added in the appropriate concentrations to the assay buffer and the basal rate of hydrolysis was recorded. Hos3 enzyme (150 nM) was added after 90 seconds and the reaction was allowed to proceed for 600 seconds. Initial rate data was transformed into appropriate rates and dose response plots were generated. IC50 values were calculated using the program Kaleidagraph with equation 4: […]\nwhere vi is the initial velocity in the presence of inhibitor, vo, is the initial velocity in the absence of inhibitor, and [I] is the concentration of inhibitor. Ki values were determined by Dixon plots […]. The modes of inhibition were determined by double-reciprocal or Lineweaver-Burk plots, where 1/v is plotted as a function of 1/[S], using the programs of Cleland."}, "Hos3 [2]": {"target": "T1, Hos3", "test": "HDAC inhibitor studies (competition with 7AC substrate, fluorescent assay)", "assay_type": "biochemical", "settings": "Hos3 (150 nM), slope of Henderson plot"}, "[3]": {"test": "Solubility of substrate in assay buffer", "assay_type": "physicochemical", "settings": "HDAC assay buffer"}, "Hos3 [4]": {"target": "T1, Hos3", "test": "Histone deacetylase fluorescent activity assay (7AC hydrolysis)", "assay_type": "biochemical", "settings": "7AC as substrate; 150 nM Hos3; pH 8.0", "description": "(§1) As depicted in FIG. 1, the inventive fluorescence-based HDAC assay monitors the hydrolysis of 7AC to 7-hydroxycoumarin, or of ACC to 7-hydroxycoumarin-3-carboxylic acid, at λex=332 nm and λem=447 nm. […] Utilization rations for each enzyme with the 7AC substrate were calculated. For Hos3, the utilization ratio was 1.9122×10^−4 s^−1, and 1274.8 M^−1 s^−1 when normalized by enzyme concentration. For HDLP, the utilization ratio was 2.0375×10^−4 s^−1, and 612.8 M^−1 s^−1 when normalized by enzyme concentration. For HDAC2, the utilization ratio was 1.2526×10^−5 s^−1, and 35.8 M^−1 s^−1 when normalized by enzyme concentration, as shown in Table 1.\n(§2) HDAC activity assays were performed in HDAC assay buffer (20 mM Tris, pH 8.0, 500 mM NaCl, 1 mM MnCl2) to a final reaction volume of 1 ml in quartz spectrophotometer cuvettes. Fluorescence spectrophotometry was used to monitor ACC or 7AC hydrolysis (λex=332 nm, λem=447 nm). Internal fluorescence intensity calibrations were obtained using quinine sulfate as known in the art. ACC or 7AC substrate (solubilized in 100% DMSO) was added in the appropriate concentrations to the assay buffer (1% final concentration of DMSO) and the basal rate of hydrolysis was recorded. After 90 seconds, 150 nM Hos3 enzyme was added and the reaction was allowed to proceed for 600 seconds. […] Utilization ratios for Hos3 were calculated based on the adjusted initial rates. […]"}, "HDLP": {"tested_on": "HDLP", "test": "Histone deacetylase fluorescent activity assay (7AC hydrolysis)", "assay_type": "biochemical, Aquifex aeolicus", "settings": "7AC as substrate; 330 nM GST-HDLP; pH 8.0", "description": "as §1, §2"}, "HDAC2": {"target": "T2, HDAC2 (Homo sapiens, UniProt Q92769)", "T2 construct": "made in house; host or cells: E. coli BL21(DE3)", "test": "Histone deacetylase fluorescent activity assay (7AC hydrolysis)", "assay_type": "biochemical", "settings": "7AC as substrate; 350 nM GST-HDAC2; pH 8.0", "description": "as §1, §2"}, "[5]": {"test": "Background (basal) rate of substrate hydrolysis in assay buffer", "assay_type": "physicochemical", "settings": "assay buffer at pH 8.0; compared with ACC", "description": "as §1, §2"}, "[6]": {"substrate": "CC(=O)Oc1ccc([N+](=O)[O-])cc1", "test": "UV-based histone deacetylase activity assay", "assay_type": "biochemical, Saccharomyces cerevisiae", "settings": "other: MBP-Hos3; UV at 410 nm", "from_the_text": "The substrates 7AC and ACC can also be effectively utilized in a UV assay. The substrate absorbs from 250-340 nm, while the product has a maximal absorbance at 375 nm. So substrate hydrolysis/product formation can be monitored by the increase in absorbance at 375 nm. […] Para-nitrophenylacetate can also be used to assay HDAC activity. Upon acetate hydrolysis, the para-nitrophenylacetate liberates the colored p-nitrophenol chromophore; this reaction can be monitored on the UV at 410 nm.\nHDAC activity assays were performed in HDAC Assay Buffer to a final reaction volume of 1 ml in quartz cuvettes. UV/Vis spectrophotometer was used to monitor the rate of 7AC hydrolysis. The 7AC substrate absorbs from 250-340 nm, while the product, 7-hydroxycoumarin, has a maximal absorbance at 375 nm. Reactions were initiated with substrate and allowed to proceed for 300 seconds, while monitoring the increase in absorbance at 375 nm. Para-nitrophenylacetate was also used to assay HDAC activity. Upon acetate hydrolysis, the para-nitrophenylacetate liberated the colored p-nitrophenol chromophore; this reaction was monitored on the UV at 410 nm. Initial rates and utilization ratios were calculated as described above."}}, "note": "Entries after “also recorded” stand apart in the source; their conditions may differ.", "data": [{"molecule": "CC(/C=C/C(=O)NO)=C\\[C@@H](C)C(=O)c1ccc(N(C)C)cc1", "note": "[TSA, Trichostatin A]", "values": [{"measurement": "IC50", "setting": "Hos3 [1]", "result": 0.000127, "unit": "mM"}, {"measurement": "Mode of Inhibition", "setting": "Hos3 [1]", "result": "Tight-binding"}, {"measurement": "Mode of Inhibition", "setting": "Hos3 [1]; listed as Trichostatin A", "result": "tight-binding competitive inhibitor; also recorded: tight-binding, competitive inhibitor; also recorded: tight binding competitive inhibition"}, {"measurement": "Ki", "setting": "Hos3 [2]", "result": 81, "unit": "nM"}]}, {"molecule": "CCCC(=O)[O-].[Na+]", "note": "[NaB, sodium butyrate]", "values": [{"measurement": "IC50", "setting": "Hos3 [1]", "result": 13.4, "unit": "mM"}, {"measurement": "Ki", "setting": "Hos3 [1]; Hos3 (150 nM), 7AC substrate, Dixon plot", "result": 12, "unit": "mM"}, {"measurement": "Mode of Inhibition", "setting": "Hos3 [1]", "result": "Mixed-"}, {"measurement": "Mode of Inhibition", "setting": "Hos3 [1]; listed as Sodium butyrate", "result": "mixed-type inhibition"}, {"measurement": "Mode of Inhibition", "setting": "Hos3 [1]; listed as sodium butyrate", "result": "mixed-competitive inhibitor"}]}, {"molecule": "CC(=O)Oc1ccc([N+](=O)[O-])cc1", "note": "[Para-nitrophenylacetate, 4-nitrophenylacetate]", "values": [{"measurement": "Solubility limitation", "setting": "[3]", "result": "subject to solubility limitations that prevent complete saturation of the enzyme"}]}, {"molecule": "CC(=O)Oc1ccc2ccc(=O)oc2c1", "note": "[7AC, 7-Acetoxycoumarin]", "values": [{"measurement": "V/K (utilization ratio)", "setting": "Hos3 [4]", "result": 0.00019122, "unit": "s⁻¹"}, {"measurement": "V/[Et]/K (utilization ratio normalized by enzyme concentration)", "setting": "Hos3 [4]", "result": 1274.8, "unit": "M⁻¹ s⁻¹"}, {"measurement": "V/K (utilization ratio)", "setting": "HDLP", "result": 0.00020375, "unit": "s⁻¹"}, {"measurement": "V/[Et]/K (utilization ratio normalized by enzyme concentration)", "setting": "HDLP", "result": 612.8, "unit": "M⁻¹ s⁻¹"}, {"measurement": "V/K (utilization ratio)", "setting": "HDAC2", "result": "1.2526e-05", "unit": "s⁻¹"}, {"measurement": "V/[Et]/K (utilization ratio normalized by enzyme concentration)", "setting": "HDAC2", "result": 35.8, "unit": "M⁻¹ s⁻¹"}, {"measurement": "Background rate of hydrolysis", "setting": "[5]", "result": "lower background rate of hydrolysis"}, {"measurement": "solubility", "setting": "[3]; aqueous buffer", "result": "≤ 1", "unit": "mM"}]}, {"molecule": "Hos3 (Saccharomyces cerevisiae S288C) (protein, made in house; host or cells: E. coli BL21(DE3)) MSSKHSDPLERFYKQFQAFVQNNPNVISAARAAAQIPESAKAVVVLSPYSLQHVFPREWVTKSYRKTIVERPERLLASSMGISAAITMYPSLFTLKSSHQRKGSLMAPHVLKVHGSSWPAELIELCQMADAKLLKGEIEVPDTWNSGDIYLSSKTIKALQGTIGAIETGVDSIFKGPSAEHISNRAFVAIRPPGHHCHYGTPSGFCLLNNAHVAIEYAYDTYNVTHVVVLDFDLHHGDGTQDICWKRAGFKPEEEPEDSSYDDFGKKFAEFPKVGYFSMHDINSFPTESGFATKENIKNASTCIMNSHDLNIWNIHLSKWTTEEEFNVLYRTKYRTLFAKADEFFRSAKLEMNQQGRPFKGLVVISAGFDASEFEQTSMQRHSVNVPTSFYTTFTKDALKLAQMHCHGKVLSLMEGGYSDKAICSGVFAHLIGLQNQDWVKEWGSEQVVKEIVRGCKPAWKPYKTKRAKDVIRIWAEEVIRLGRAMIPEFDDIIFKDAVNSAPSNSLLKATVEPASTSTIAQRIIRSHRSNASPEKELHENKPRSTEKQEQREIRSDTKVKQLSSNNRAAETQIPFLQQEFSSEDEDEEYVYDEELNKTFNRTVEDITIDDISRHLETLEIEKKGDEDSDHELKEKNWKNSHQRRLQGNGMYKIPSNTKPHRIRQPQNANTPTYDDSDISMISHVSRKHTTRSGGRW", "values": [{"measurement": "Km", "setting": "[6]", "result": 8.3, "unit": "mM"}]}]}
